Source: the NIST ThermoML archive (doi:10.1016/j.fluid.2013.11.026)

Experiments:
[1] = 101.33 kPa, Liquid, Vibrating tube method
[2] = refractive index (Na D-line) (dimensionless); details: 101.33 kPa, Liquid, Standard Abbe refractometry
[3] = excess molar enthalpy (molar enthalpy of mixing); xn = mol fraction of the nth substance listed; details: 101 kPa, Liquid, Calvet calorimetry
[4] = xn = mol fraction of the nth substance listed; details: 101 kPa, Liquid, Vibrating tube method

CCOC=O [ethyl methanoate]
Details | mass density, [1] [kg/m3] | refractive index, [2]
291.15 K | 923.4 | 1.3614
298.15 K | 914.35 | 1.358

CCCOC=O [propyl methanoate] + CCCCC
Details | excess molar enthalpy, [3] [kcal/mol] | mass density, [4] [kg/m3]
291.15 K, x1 = 0.057 | – | 639.86
291.15 K, x1 = 0.0666 | 0.0844 | –
291.15 K, x1 = 0.117 | – | 653.61
291.15 K, x1 = 0.1411 | 0.141 | –
291.15 K, x1 = 0.166 | – | 665.38
291.15 K, x1 = 0.2072 | 0.1824 | –
291.15 K, x1 = 0.26 | – | 688.38
291.15 K, x1 = 0.2696 | 0.2106 | –
291.15 K, x1 = 0.308 | – | 700.63
291.15 K, x1 = 0.3154 | 0.2273 | –
291.15 K, x1 = 0.3689 | 0.2395 | –
291.15 K, x1 = 0.4172 | 0.2433 | –
291.15 K, x1 = 0.448 | – | 737.83
291.15 K, x1 = 0.46 | 0.2431 | –
291.15 K, x1 = 0.4953 | 0.2402 | –
291.15 K, x1 = 0.5199 | 0.238 | –
291.15 K, x1 = 0.537 | – | 763.24
291.15 K, x1 = 0.5543 | 0.2321 | –
291.15 K, x1 = 0.5955 | 0.2218 | –
291.15 K, x1 = 0.631 | 0.2122 | –
291.15 K, x1 = 0.651 | – | 796.41
291.15 K, x1 = 0.678 | 0.1974 | –
291.15 K, x1 = 0.703 | – | 812.04
291.15 K, x1 = 0.7184 | 0.1807 | –
291.15 K, x1 = 0.7665 | 0.1597 | –
291.15 K, x1 = 0.819 | 0.1322 | 848.4
291.15 K, x1 = 0.847 | – | 857.3
291.15 K, x1 = 0.879 | 0.0949 | –
291.15 K, x1 = 0.938 | – | 886.86
291.15 K, x1 = 0.9403 | 0.0528 | –
291.15 K, x1 = 1 | – | 907.97
298.15 K, x1 = 0.042 | 0.0468 | –
298.15 K, x1 = 0.0505 | – | 631.54
298.15 K, x1 = 0.0794 | – | 638.09
298.15 K, x1 = 0.1081 | 0.114 | –
298.15 K, x1 = 0.1375 | – | 651.43
298.15 K, x1 = 0.1456 | 0.158 | –
298.15 K, x1 = 0.2012 | – | 666.5
298.15 K, x1 = 0.2109 | 0.2017 | –
298.15 K, x1 = 0.2525 | – | 679.23
298.15 K, x1 = 0.2706 | 0.2294 | –
298.15 K, x1 = 0.3178 | – | 695.79
298.15 K, x1 = 0.3317 | 0.2495 | –
298.15 K, x1 = 0.3733 | – | 710.12
298.15 K, x1 = 0.3889 | 0.2596 | –
298.15 K, x1 = 0.4303 | – | 725.46
298.15 K, x1 = 0.4431 | 0.2631 | –
298.15 K, x1 = 0.4798 | – | 739.19
298.15 K, x1 = 0.4882 | – | 741.75
298.15 K, x1 = 0.4905 | 0.2627 | –
298.15 K, x1 = 0.5353 | 0.2584 | –
298.15 K, x1 = 0.5467 | – | 758.38
298.15 K, x1 = 0.5637 | 0.2548 | –
298.15 K, x1 = 0.6019 | – | 774.28
298.15 K, x1 = 0.6149 | 0.245 | –
298.15 K, x1 = 0.67 | 0.2326 | –
298.15 K, x1 = 0.6778 | – | 796.75
298.15 K, x1 = 0.7271 | 0.2125 | –
298.15 K, x1 = 0.7597 | – | 822.01
298.15 K, x1 = 0.7888 | 0.1809 | –
298.15 K, x1 = 0.8079 | – | 837.19
298.15 K, x1 = 0.8503 | – | 850.78
298.15 K, x1 = 0.8511 | 0.141 | –
298.15 K, x1 = 0.9096 | 0.0927 | –
298.15 K, x1 = 0.9251 | – | 874.84
298.15 K, x1 = 0.9655 | 0.0442 | –
298.15 K, x1 = 1 | – | 899.86

COC=O [methyl methanoate] + CCCCC
291.15 K
Details | excess molar enthalpy [kcal/mol] | mass density [kg/m3]
[3], x1 = 0.1107 | 0.1511 | –
[3], x1 = 0.2113 | 0.2758 | –
[3], x1 = 0.3055 | 0.3714 | –
[3], x1 = 0.3765 | 0.418 | –
[3], x1 = 0.438 | 0.4412 | –
[3], x1 = 0.4783 | 0.4484 | –
[3], x1 = 0.5268 | 0.4539 | –
[3], x1 = 0.5716 | 0.4503 | –
[3], x1 = 0.6028 | 0.4398 | –
[3], x1 = 0.6356 | 0.4264 | –
[3], x1 = 0.6702 | 0.4089 | –
[3], x1 = 0.7191 | 0.3817 | –
[3], x1 = 0.7683 | 0.3425 | –
[3], x1 = 0.8256 | 0.2882 | –
[3], x1 = 0.8773 | 0.2266 | –
[3], x1 = 0.9215 | 0.158 | –
[3], x1 = 0.9587 | 0.0827 | –
[4], x1 = 0.091 | – | 640.27
[4], x1 = 0.102 | – | 641.95
[4], x1 = 0.147 | – | 649.45
[4], x1 = 0.206 | – | 660.56
[4], x1 = 0.27 | – | 674.05
[4], x1 = 0.309 | – | 683.08
[4], x1 = 0.371 | – | 698.6
[4], x1 = 0.393 | – | 704.52
[4], x1 = 0.416 | – | 710.63
[4], x1 = 0.451 | – | 721.01
[4], x1 = 0.488 | – | 732.21
[4], x1 = 0.506 | – | 737.92
[4], x1 = 0.559 | – | 755.6
[4], x1 = 0.618 | – | 776.61
[4], x1 = 0.695 | – | 807.5
[4], x1 = 0.759 | – | 835.94
[4], x1 = 0.786 | – | 849.13
[4], x1 = 0.827 | – | 870.13
[4], x1 = 0.84 | – | 876.82
[4], x1 = 0.941 | – | 936.47
[4], x1 = 1 | – | 977.21

CCCCC [pentane] + CCCCOC=O
[4], x2 = 0
Details | mass density [kg/m3]
291.15 K | 627.86
298.15 K | 620.89

CCCCOC=O [butyl methanoate]
Details | mass density, [1] [kg/m3] | refractive index, [2]
291.15 K | 895.86 | 1.3904
298.15 K | 888.47 | 1.3872
